According to article PMC12073402, “A Selective MAP3K1 Inhibitor Facilitates Discovery of NPM1 as a Member of the Network” (Molecules, 2025):

Experiments:
Test in all cases: KiNativ kinome profiling in PANC-1 lysate
Format in all cases: binding
PKR = target: T1, PKR (Homo sapiens, UniProt P19525)
T1 construct: endogenous in cells; host or cells: PANC-1 cell lysate
Outline: (§1)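 PANC-1 lysates were incubated with 5 μM inhibitor or DMSO, then labeled with a desthiobiotin-ATP acyl-phosphate probe that biotinylates conserved kinase lysines. Tryptic peptides were streptavidin-enriched and quantified by LC-MS/MS, reported as % change in MS signal from duplicate treated and duplicate control samples.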

AMPKa1, AMPKa2 = conditions: 5 µM
Outline: as §1

MAP3K15, MAP3K5, MAP3K6 = target: T2, MAP3K15, MAP3K5, MAP3K6 (Homo sapiens, UniProt Q6ZN16); conditions: 5 μM; PANC-1 lysate
T2 construct: endogenous in cells; host or cells: PANC-1 cell lysate
Outline: as §1

PI4KA, PI4KAP2 = conditions: 5 µM; ATP; SGTPMQSAAKAPYLAK
Outline: as §1

SRPK1, SRPK2 = conditions: 5 µM; Lys1; FVAMKVVK
Outline: as §1

MAST1, MAST2 = conditions: 5 µM; Lys2; DLKPDNLLITSMGHIK
Outline: as §1

ROCK1, ROCK2 = conditions: 5 µM
Outline: as §1

SLK = target: T3, SLK (Homo sapiens, UniProt Q9H2G2)
T3 construct: endogenous in cells; host or cells: PANC-1 cell lysate
T3 sequence (Q9H2G2 whole entry): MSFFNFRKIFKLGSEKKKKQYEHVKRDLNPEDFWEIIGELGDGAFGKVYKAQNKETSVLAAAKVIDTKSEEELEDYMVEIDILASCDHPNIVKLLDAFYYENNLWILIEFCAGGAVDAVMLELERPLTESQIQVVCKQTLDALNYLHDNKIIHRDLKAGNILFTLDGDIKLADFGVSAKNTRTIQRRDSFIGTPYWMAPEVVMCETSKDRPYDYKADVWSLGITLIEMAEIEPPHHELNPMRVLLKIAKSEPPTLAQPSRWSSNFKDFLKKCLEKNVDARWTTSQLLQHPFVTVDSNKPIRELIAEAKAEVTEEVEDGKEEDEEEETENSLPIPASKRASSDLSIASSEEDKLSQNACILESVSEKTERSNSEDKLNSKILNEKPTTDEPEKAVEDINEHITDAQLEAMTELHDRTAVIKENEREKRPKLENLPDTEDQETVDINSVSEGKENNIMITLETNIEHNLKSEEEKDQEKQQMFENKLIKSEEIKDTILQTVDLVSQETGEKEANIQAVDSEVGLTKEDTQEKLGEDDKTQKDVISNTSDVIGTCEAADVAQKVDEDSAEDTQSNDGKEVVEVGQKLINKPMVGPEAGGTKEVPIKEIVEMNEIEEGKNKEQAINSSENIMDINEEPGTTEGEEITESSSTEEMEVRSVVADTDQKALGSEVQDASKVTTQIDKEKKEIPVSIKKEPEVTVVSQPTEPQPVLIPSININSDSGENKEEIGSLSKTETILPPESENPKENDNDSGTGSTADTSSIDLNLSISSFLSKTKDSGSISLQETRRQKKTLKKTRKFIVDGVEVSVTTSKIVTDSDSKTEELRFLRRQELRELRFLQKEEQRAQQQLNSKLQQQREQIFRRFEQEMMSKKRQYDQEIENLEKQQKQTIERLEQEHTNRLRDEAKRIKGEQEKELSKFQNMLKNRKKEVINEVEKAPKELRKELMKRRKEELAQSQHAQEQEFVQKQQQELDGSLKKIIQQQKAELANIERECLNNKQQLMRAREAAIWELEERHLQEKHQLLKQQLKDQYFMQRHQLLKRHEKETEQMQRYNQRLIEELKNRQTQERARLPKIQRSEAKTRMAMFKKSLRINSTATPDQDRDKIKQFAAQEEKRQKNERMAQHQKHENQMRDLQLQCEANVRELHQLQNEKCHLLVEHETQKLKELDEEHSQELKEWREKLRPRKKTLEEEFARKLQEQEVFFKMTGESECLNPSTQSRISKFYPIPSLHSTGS
Outline: as §1

NEK4 = target: T4, NEK4 (Homo sapiens, UniProt P51957); conditions: Lys2
T4 construct: endogenous in cells; host or cells: PANC-1 cell lysate
T4 sequence (P51957 whole entry): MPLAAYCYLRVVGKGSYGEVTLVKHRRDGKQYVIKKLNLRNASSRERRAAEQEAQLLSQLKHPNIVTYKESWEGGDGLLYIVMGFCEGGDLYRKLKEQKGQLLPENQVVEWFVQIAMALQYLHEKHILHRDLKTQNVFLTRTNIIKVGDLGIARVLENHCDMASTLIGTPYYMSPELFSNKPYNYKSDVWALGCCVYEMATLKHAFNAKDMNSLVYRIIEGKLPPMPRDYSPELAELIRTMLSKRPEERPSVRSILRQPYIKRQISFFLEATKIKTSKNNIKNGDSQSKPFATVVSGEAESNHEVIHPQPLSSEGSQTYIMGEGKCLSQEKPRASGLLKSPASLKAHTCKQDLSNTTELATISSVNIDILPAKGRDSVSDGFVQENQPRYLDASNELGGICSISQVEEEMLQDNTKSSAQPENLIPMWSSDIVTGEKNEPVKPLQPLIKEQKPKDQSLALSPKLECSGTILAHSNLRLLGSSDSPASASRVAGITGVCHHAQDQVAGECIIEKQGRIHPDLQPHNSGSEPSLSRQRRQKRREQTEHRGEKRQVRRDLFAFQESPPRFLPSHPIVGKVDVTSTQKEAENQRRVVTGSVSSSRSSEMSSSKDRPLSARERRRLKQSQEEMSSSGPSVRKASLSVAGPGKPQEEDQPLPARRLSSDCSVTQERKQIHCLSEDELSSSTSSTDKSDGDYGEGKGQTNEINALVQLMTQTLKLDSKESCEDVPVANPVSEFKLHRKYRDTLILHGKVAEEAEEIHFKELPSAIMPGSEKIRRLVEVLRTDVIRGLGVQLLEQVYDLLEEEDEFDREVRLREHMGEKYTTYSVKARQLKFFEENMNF
Outline: as §1

HER3/ErbB3 = target: T5, HER3/ErbB3 (Homo sapiens, UniProt P21860)
T5 construct: we opted to conduct a kinome screen (KiNativ) in PANC-1 cell lysates; endogenous in cells; host or cells: PANC-1 cell lysate
T5 sequence (P21860 20-1342): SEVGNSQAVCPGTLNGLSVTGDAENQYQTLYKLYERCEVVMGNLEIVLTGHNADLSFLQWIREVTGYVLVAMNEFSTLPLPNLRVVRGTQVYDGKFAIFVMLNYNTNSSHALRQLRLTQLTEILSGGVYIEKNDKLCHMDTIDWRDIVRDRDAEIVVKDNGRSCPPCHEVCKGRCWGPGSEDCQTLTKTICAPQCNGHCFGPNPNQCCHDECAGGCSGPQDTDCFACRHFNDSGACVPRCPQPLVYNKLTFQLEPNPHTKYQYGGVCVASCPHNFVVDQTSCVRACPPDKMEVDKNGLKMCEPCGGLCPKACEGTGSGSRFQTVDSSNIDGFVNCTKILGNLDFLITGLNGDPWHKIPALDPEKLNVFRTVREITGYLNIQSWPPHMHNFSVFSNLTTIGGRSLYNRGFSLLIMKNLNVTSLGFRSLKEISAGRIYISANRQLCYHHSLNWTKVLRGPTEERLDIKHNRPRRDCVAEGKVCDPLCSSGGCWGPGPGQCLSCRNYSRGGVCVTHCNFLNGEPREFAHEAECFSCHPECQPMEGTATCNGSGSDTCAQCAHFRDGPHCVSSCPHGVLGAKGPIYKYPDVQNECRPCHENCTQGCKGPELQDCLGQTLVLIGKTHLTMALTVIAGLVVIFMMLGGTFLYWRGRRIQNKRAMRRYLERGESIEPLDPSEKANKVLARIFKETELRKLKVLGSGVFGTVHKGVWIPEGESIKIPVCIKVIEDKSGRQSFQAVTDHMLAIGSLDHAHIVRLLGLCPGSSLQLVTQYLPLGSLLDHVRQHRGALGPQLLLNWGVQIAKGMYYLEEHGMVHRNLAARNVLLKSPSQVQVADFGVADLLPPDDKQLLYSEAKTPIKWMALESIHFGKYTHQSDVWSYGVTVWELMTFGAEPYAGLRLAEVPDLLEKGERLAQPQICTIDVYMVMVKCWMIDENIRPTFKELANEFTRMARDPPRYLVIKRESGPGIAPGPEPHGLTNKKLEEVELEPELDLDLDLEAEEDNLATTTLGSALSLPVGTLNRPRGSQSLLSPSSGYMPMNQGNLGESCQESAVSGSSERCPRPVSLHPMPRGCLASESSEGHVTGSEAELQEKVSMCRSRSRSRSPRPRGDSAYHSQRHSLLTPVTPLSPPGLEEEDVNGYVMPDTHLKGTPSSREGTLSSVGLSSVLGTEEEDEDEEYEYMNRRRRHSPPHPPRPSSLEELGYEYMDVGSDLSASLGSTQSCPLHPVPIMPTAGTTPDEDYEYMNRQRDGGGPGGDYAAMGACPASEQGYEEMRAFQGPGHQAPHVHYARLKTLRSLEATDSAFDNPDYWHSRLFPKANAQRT
Outline: as §1

PCTAIRE2, PCTAIRE3 = conditions: 5 µM; Lys1; SKLTENLVALKEIR
Outline: as §1

PKCi = target: T6, PKCi (Homo sapiens, UniProt P41743)
T6 construct: endogenous in cells; host or cells: PANC-1 cell lysate
T6 sequence (P41743 whole entry): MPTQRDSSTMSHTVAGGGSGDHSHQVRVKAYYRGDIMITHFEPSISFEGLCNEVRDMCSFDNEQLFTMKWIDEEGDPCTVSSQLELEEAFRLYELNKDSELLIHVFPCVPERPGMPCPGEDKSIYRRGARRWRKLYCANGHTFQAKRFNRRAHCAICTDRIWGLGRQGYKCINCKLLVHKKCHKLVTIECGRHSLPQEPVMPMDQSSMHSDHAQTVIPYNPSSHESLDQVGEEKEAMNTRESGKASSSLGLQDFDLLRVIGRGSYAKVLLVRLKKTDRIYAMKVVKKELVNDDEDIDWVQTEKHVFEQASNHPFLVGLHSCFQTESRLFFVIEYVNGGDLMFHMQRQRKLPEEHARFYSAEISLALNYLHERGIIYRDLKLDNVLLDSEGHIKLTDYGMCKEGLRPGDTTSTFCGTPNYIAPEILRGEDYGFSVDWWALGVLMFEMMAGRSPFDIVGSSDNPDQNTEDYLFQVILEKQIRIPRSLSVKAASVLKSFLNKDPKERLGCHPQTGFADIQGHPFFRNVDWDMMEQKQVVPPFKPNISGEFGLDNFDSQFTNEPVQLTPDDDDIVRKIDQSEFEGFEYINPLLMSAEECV
Outline: as §1

Wnk1, Wnk2, Wnk3 = conditions: 5 µM; Lys2; DLKCDNIFITGPTGSVK
Outline: as §1

TAO2 = target: T7, TAO2 (Homo sapiens, UniProt Q9UL54); conditions: Lys2
T7 construct: endogenous in cells; host or cells: PANC-1 cell lysate
Outline: as §1

PKD1 = target: T8, PKD1 (Homo sapiens, UniProt Q15139); conditions: Lys1
T8 construct: endogenous in cells; host or cells: PANC-1 cell lysate
Outline: as §1

PIP4K2A = target: T9, PIP4K2A (Homo sapiens, UniProt P48426); conditions: ATP
T9 construct: endogenous in cells; host or cells: PANC-1 cell lysate
T9 sequence (P48426 whole entry): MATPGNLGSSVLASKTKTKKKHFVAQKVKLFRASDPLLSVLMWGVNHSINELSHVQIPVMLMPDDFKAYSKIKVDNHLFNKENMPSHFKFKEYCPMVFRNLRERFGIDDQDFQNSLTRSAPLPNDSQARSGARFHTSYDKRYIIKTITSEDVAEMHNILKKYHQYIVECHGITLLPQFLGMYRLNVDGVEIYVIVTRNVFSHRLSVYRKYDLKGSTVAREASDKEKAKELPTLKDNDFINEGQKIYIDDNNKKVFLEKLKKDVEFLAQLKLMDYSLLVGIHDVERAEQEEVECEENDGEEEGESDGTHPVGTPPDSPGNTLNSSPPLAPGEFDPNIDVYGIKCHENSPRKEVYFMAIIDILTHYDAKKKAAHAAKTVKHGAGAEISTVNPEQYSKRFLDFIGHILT
Outline: as §1

MLK3 = target: T10, MLK3 (Homo sapiens, UniProt Q16584); conditions: Lys2
T10 construct: endogenous in cells; host or cells: PANC-1
Outline: as §1

ZAK = target: T11, ZAK (Homo sapiens, UniProt Q9NYL2); conditions: Lys1
T11 construct: endogenous in cells; host or cells: PANC-1 cell lysate
Outline: as §1

CaMKK1 = target: T12, CaMKK1 (Homo sapiens, UniProt Q8N5S9); conditions: Lys2
T12 construct: endogenous in cells; host or cells: PANC-1 cell lysate
Outline: as §1

ZC2/TNIK = target: T13, ZC2/TNIK (Homo sapiens, UniProt Q9UKE5); conditions: Lys1
T13 construct: endogenous in cells; host or cells: PANC-1 cell lysate
Outline: as §1

PKN2 = target: T14, PKN2 (Homo sapiens, UniProt Q16513); conditions: Lys2
T14 construct: endogenous in cells; host or cells: PANC-1 cell lysate
Outline: as §1

ABL, ARG = conditions: 5 µM
Outline: as §1

DNAPK = target: T15, DNAPK (Homo sapiens, UniProt P78527); conditions: ATP
T15 construct: endogenous in cells; host or cells: PANC-1 lysate
Outline: as §1

ATM = target: T16, ATM (Homo sapiens, UniProt Q13315); conditions: ATP
T16 construct: endogenous in cells; host or cells: PANC-1 cell lysate
Outline: as §1

T1 sequence (P19525 whole entry): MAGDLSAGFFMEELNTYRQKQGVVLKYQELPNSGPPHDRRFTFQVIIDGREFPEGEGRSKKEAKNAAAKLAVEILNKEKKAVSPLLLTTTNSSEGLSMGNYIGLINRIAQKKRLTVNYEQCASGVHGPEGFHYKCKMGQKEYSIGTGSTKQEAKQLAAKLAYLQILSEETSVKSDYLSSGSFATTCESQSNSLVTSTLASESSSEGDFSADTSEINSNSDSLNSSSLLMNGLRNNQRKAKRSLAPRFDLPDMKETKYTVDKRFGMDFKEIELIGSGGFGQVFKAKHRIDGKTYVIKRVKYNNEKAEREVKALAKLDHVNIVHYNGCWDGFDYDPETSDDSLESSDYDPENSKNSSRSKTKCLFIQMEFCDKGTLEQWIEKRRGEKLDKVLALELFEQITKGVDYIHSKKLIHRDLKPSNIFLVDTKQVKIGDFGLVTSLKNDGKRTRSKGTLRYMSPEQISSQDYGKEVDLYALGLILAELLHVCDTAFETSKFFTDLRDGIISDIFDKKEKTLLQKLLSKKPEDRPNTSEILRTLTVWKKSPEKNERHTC

Cn1cc(-c2cnc3ccc(NC(=O)Nc4ccc(F)c(C(F)(F)F)c4)cc3n2)cn1 [51-106, 1-(4-Fluoro-3-(trifluoromethyl)phenyl)-3-(3-(1-methyl-1H-pyrazol-4-yl)quinoxalin-6-yl)urea]
inhibition at 5 µM (PKR; ATP Loop, IGDFGLVTSLKNDGKR): ≤ 0% | inhibition at 5 µM (PKR; Lys2, DLKPSNIFLVDTK): 18.7% | % Inhibition (AMPKa1, AMPKa2; Lys1, VAVKILNR): 7.5% | % Inhibition (AMPKa1, AMPKa2; Lys2, DLKPENVLLDAHMNAK): 8.7% | inhibition of MAP3K15 (in words) (MAP3K15, MAP3K5, MAP3K6): did not inhibit | % Inhibition (PI4KA, PI4KAP2): 3.0% | % Inhibition (SRPK1, SRPK2): NB (NB = No Binding (≤ 0)) | % Inhibition (MAST1, MAST2): NB (NB = No Binding (≤ 0)) | % Inhibition (ROCK1, ROCK2; Lys1, VYAMKLLSK): 11.9% | % Inhibition (ROCK1, ROCK2; Lys2, DVKPDNMLLDK): NB (NB = No Binding (≤ 0)) | inhibition at 5 µM (SLK; Lys1, AQNKETSVLAAAKVIDTK): ≤ 0% | inhibition at 5 µM (SLK; Lys2, DLKAGNILFTLDGDIK): 7% | inhibition at 5 µM (NEK4): 5.8% | inhibition at 5 µM (HER3/ErbB3; ATP Loop, SPSQVQVADFGVADLLPPDDKQLLYSEAKTPIK): 2% | inhibition at 5 µM (HER3/ErbB3; Lys1, GVWIPEGESIKIPVCIKVIEDK): ≤ 0% | % Inhibition (PCTAIRE2, PCTAIRE3): NB (NB = No Binding (≤ 0)) | % Inhibition (PKCi; 5 µM, Lys2, DLKLDNVLLDSEGHIK): NB (NB = No Binding (≤ 0)) | inhibition at 5 µM (PKCi; Lys1, […]): ≤ 0% | % Inhibition (Wnk1, Wnk2, Wnk3): 10.6% | inhibition at 5 µM (TAO2): 5.5% | inhibition at 5 µM (PKD1): ≤ 0% | inhibition at 5 µM (PIP4K2A; AKELPTLKDNDFINEGQK): ≤ 0% | inhibition at 5 µM (PIP4K2A; YIIKTITSEDVAEMHNILK): 4.5% | inhibition at 5 µM (MLK3): 1.3% | inhibition at 5 µM (ZAK): ≤ 0% | inhibition at 5 µM (CaMKK1): ≤ 0% | inhibition at 5 µM (ZC2/TNIK): 11.2% | inhibition at 5 µM (PKN2): 3.7% | % Inhibition (ABL, ARG; Activation Loop, LMTGDTYTAHAGAKFPIK): NB (NB = No Binding (≤ 0)) | % Inhibition (ABL, ARG; Lys1, YSLTVAVKTLK): 3.5% | % Inhibition (ABL, ARG; Lys1, YSLTVAVKTLKEDTMEVEEFLK): NB (NB = No Binding (≤ 0)) | % Inhibition (DNAPK; 5 µM, EHPFLVKGGEDLR): NB (NB = No Binding (≤ 0)) | inhibition at 5 µM (DNAPK; […]): ≤ 0% | inhibition at 5 µM (ATM): 7.4%
